{
  "source": "patent US20080269338A1",
  "about": "“AQUEOUS SOLUTIONS CONTAINING CHLORAMINE WHICH ARE FREE FROM DI-AND TRICHLOROAMINE, AS WELL AS FROM AMMONIA” (priority 2007, published 2008)",
  "key": {"[1]": {"experiment": "Example 2: stability of a pure monochloramine solution (UV spectrum)", "type": "physicochemical", "conditions": "three days storage in the refrigerator at 0-3° C.", "experimental": "A solution of 1 g each of N-chlorotaurine and ammonium chloride in 100 mL water was distilled in a rotavapor (water stream vacuum, water bath temperature 50° C.). The distillate contained, according to the UV spectrum, […] pure monochloramine (NH2Cl, absorption band at λmax=244 nm, A244=0.9812, d=0.1 cm, ε244=461.6 L mol^−1 cm^−1). After three days storage in the refrigerator at 0-3° C., the band at 244 disappeared, while two bands at 203 nm (A=1.146) and 294 nm (A0 0.148) appeared which are characteristic for the chromophor —NCl2. Gottardi et al., supra."}, "[2]": {"test_system": "bacteria", "experiment": "Killing tests, bacterial strains in general", "type": "cell-based", "conditions": "preliminary experiments, without NCT", "experimental": "Microbicidal activity. […] The impact of ammonium chloride on the microbicidal activity of NCT could be confirmed in several bacterial strains (FIG. 4).\nBacterial strains, Staphylococcus aureus ATCC 25923 and 6538, Staphylococcus epidermidis ATCC 12228, Escherichia coli ATCC 11229, Proteus mirabilis ATCC 14153, Pseudomonas aeruginosa ATCC 27853, and a clinical isolate of […] deep-frozen for storage were grown overnight on tryptic soy agar (Merck, Darmstadt, Germany). Colonies from this agar were grown in tryptic soy broth (Merck, Darmstadt, Germany) at 37° C. overnight and washed twice with saline.\nKilling tests. Bacteria were diluted in buffered test solution to concentrations of 1×10^6 to 5×10^7 CFU/mL. Immediately and subsequent to different incubation times at room temperature, aliquots were removed, and NCT with or without ammonium chloride or plain monochloramine was inactivated by 10-fold dilution in 0.3% sodium thiosulfate. Aliquots (50 μL) of these solutions as well as of 100-fold further dilutions in saline were spread onto tryptic soy agar plates with an automatic spiral plater (Don Whitley Scientific Limited, West Yorkshire, UK) in duplicates allowing a detection limit of 200 CFU/mL. Plates were grown at 37° C., and CFU were counted after 24 and 48 hours. Controls without NCT were treated the same way."}, "[3]": {"experiment": "Example 5: penetration through the human cornea (diffusion chamber)", "conditions": "room temperature", "experimental": "A human cornea was clamped in a specially designed chamber. The upper compartment was filled with the disinfectant, while the lower one contained the buffer solution. The system was equilibrated for 2, 4, and 6 hours at room temperature, and afterwards the oxidation capacity was determined in the buffer solution of the lower compartment."}, "[4]": {"conditions": "rabbit eye (Nagl et al.); cited from earlier work"}, "[5]": {"conditions": "human eye (Nagl et al.); cited from earlier work"}, "[6]": {"experiment": "Stability of active chlorine compound with ammonium salt in water (pH, oxidation capacity)", "type": "physicochemical"}, "[7]": {"conditions": "with ammonium, 0.1 M phosphate buffer"}, "[8]": {"conditions": "with excess ammonium, no buffer"}},
  "note": "Like-named read-outs stand apart in the source and are kept apart here.",
  "data": [
    {"compound": "NCl", "note": "[monochloramine]", "values": [
      {"measurement": "Conversion of NH2Cl to NHCl2", "setting": "[1]", "result": "complete conversion of NH2Cl to NHCl2"}
    ]},
    {"compound": "Cl.N", "note": "[Ammonium chloride]", "values": [
      {"measurement": "Influence on viability", "setting": "[2]", "result": "no influence on viability"}
    ]},
    {"compound": "O=S(=O)(O)CCNCl", "note": "[NCT, N-chlorotaurine]", "values": [
      {"measurement": "Diffused oxidation capacity, from the starting value in the upper compartment", "setting": "[3]; after 2 hours", "result": 1.3, "unit": "%"},
      {"measurement": "Diffused oxidation capacity, from the starting value in the upper compartment", "setting": "[3]; after 4 hours", "result": 4.8, "unit": "%"},
      {"measurement": "Diffused oxidation capacity, from the starting value in the upper compartment", "setting": "[3]; after 6 hours", "result": 25.4, "unit": "%"},
      {"measurement": "Tolerability", "setting": "[4]", "result": "good tolerability"},
      {"measurement": "Tolerability", "setting": "[5]", "result": "good tolerability"}
    ]},
    {"compound": "[Ca+2].[O-]Cl.[O-]Cl", "note": "[Calcium hypochlorite]", "values": [
      {"measurement": "Behaviour with ammonium compared with chloramine-T", "setting": "[6]", "result": "behave in the same manner"}
    ]},
    {"compound": "O=c1nc([O-])n(Cl)c(=O)n1Cl.[Na+]", "note": "[sodium dichloro-isocyanurate]", "values": [
      {"measurement": "Behaviour with ammonium compared with chloramine-T", "setting": "[6]", "result": "behave in the same manner"}
    ]},
    {"compound": "Cc1ccc(S(=O)(=O)NCl)cc1.[Na]", "note": "[chloramine-T, N-chloro-4-toluenesulfonamide sodium]", "values": [
      {"measurement": "Loss of oxidation capacity within 1 hour", "setting": "[6]; [7]", "result": 90, "unit": "%"},
      {"measurement": "pH within 2 hours", "setting": "[6]; [7]", "result": 6.3},
      {"measurement": "pH, start", "setting": "[6]; [7]", "result": 7.0},
      {"measurement": "pH within 8 minutes", "setting": "[6]; [8]", "result": 2.9},
      {"measurement": "pH, start", "setting": "[6]; [8]", "result": 6.8}
    ]}
  ]
}
